Among the data in patent US8809350B2, “Purine and pyrimidine CDK inhibitors and their use for the treatment of autoimmune diseases” (priority 2004, dated 2014) are IC50 and BrdU incorporation values, retold here.

Entries after “also recorded” stand apart in the source; their conditions may differ. Like-named read-outs stand apart in the source and are kept apart here.

As a reminder, the IC50 is the midpoint of a concentration-inhibition curve.

In test [1] the target is CDK9/cyclin T1 (Homo sapiens, UniProt P50750). The test can be described thus: CDK 7 and 9 assay (CTD peptide substrate). The conditions noted are these: in-house kinase assays; read-out: Average IC50 CDK9T1. It is filed as biochemical. On the procedure:
(§1) Kinase activity was investigated by measuring the incorporation of radioactive phosphate from ATP into appropriate polypeptide substrates. Recombinant protein kinases and kinase complexes were produced or obtained commercially. Assays were performed using 96-well plates and appropriate assay buffers (typically 25 mM β-glycerophosphate, 20 mM MOPS, 5 mM EGTA, 1 mM DTT, 1 mM […], pH 7.4), into which were added 2-4 μg of active enzyme with appropriate substrates. The reactions were initiated by addition of Mg/ATP mix (15 mM MgCl2+100 μM ATP with 30-50 kBq per well of [γ-^32P]-ATP) and mixtures incubated as required at 30° C. Reactions were stopped on ice, followed by filtration through p81 filterplates or GF/C filterplates (Whatman Polyfiltronics, Kent, UK). After washing 3 times with 75 mM aq orthophosphoric acid, plates were dried, scintillant added and incorporated radioactivity measured in a scintillation counter (TopCount, Packard Instruments, Pangbourne, Berks, UK). Compounds for kinase assay were made up as 10 mM stocks in DMSO and diluted into 10% DMSO in assay buffer.
(§2) The reaction was stopped by placing the plate on ice for 2 min. Avidin (50 μg) was added to each well, and the plate was incubated at room temp for 30 min. The samples were transferred to a 96-well P81 filter plate, and washed (4×200 μL per well) with 75 mM phosphoric acid. Microscint 40 scintillation liquid (50 μL) was added to each well, and the amount of ^32P incorporation for each sample was measured using a Packard Topcount microplate scintillation counter.

Test [2] has as its target CDK7/cyclin H (Homo sapiens, UniProt P50613). The test can be described thus: CDK 7 and 9 assay (CTD peptide substrate). It is filed as biochemical. To be noted: in-house kinase assays; read-out: Average IC50 CDK7H. As to the method:
as §1, §2

Test [3] has as its target CDK1B (Homo sapiens, UniProt P06493). Kind of test: In-house kinase assay (32P incorporation). It is filed as biochemical. To be noted: in-house kinase assays. As to the method: as §1
For test [4], the target named is AurB (Homo sapiens, UniProt Q96GD4). Kind of test: In-house kinase assay (32P incorporation). Format: biochemical. The conditions noted are these: in-house kinase assays. On the procedure:
as §1

Test [5] has as its target CDK6D3 (Homo sapiens, UniProt Q00534). The test can be described thus: In-house kinase assay (32P incorporation). It is filed as biochemical. The conditions noted are these: in-house kinase assays. As to the method: as §1
For test [6], the target named is T1, AurA (Homo sapiens, UniProt O14965).
T1 sequence (O14965 1-403): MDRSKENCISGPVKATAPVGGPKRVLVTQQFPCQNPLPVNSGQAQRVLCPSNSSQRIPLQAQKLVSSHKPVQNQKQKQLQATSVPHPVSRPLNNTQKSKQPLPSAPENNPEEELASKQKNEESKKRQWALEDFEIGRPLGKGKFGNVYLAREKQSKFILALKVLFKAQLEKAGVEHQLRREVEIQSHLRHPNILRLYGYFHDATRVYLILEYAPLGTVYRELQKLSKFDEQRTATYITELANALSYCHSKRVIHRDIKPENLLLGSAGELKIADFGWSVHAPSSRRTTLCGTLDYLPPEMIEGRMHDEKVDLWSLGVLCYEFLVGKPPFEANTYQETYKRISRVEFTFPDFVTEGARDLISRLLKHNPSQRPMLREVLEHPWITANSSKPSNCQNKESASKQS
The test can be described thus: In-house kinase assay (32P incorporation). It is filed as biochemical. The conditions noted are these: in-house kinase assays. As to the method: as §1

Test [7] concerns stimulated PBMCs. The test can be described thus: T cell proliferation assay (BrdU ELISA in stimulated PBMCs). It is filed as cell-based. As to the method: PBMCs were seeded in 96 well plates at 1×10^5 cells/well, in 50 μL per well culture medium. […] All stimulants and compounds were made up to 4× final concentration in tissue culture medium and 25 μL of each drug and stimulant was then added to wells, for a final volume of 100 μL/well. For unstimulated controls, 25 μL tissue culture medium was added to wells instead of stimulant and for untreated cells, 25 μL/well tissue culture medium containing equal volume DMSO (0.1% final) was added. Three adjacent wells were treated for each stimulation/treatment condition and the mean value calculated for analysis.
In addition, PBMCs were stimulated with ConA (Concanavalin A, Sigma C5275) at concentrations ranging from 0.5 μg/mL to 100 μg/mL to identify its stimulatory effect and optimal concentration.
Cells were labelled with BrdU for two hours prior to harvesting. Plates were then centrifuged for 10 minutes at 300 g (RT), supernatant removed from wells by pipetting and cells dried for 1 hour at 60° C. FixDenat solution was added to plates (100 μL/well) and incubated for 30 minutes, then flicked to remove and anti-BrdU-POD solution added to plates (100 μL/well) and incubated for 90 minutes.
A general note: Incorporation of labelled thymidine or its analogues reports DNA synthesis.

Test [8] concerns tumour cell panels. Kind of test: In-house 72 hour cytotoxicity assays on tumour cell panels. Format: cell-based.
For test [9], the target named is CDK4D1 (Homo sapiens, UniProt P11802). The test can be described thus: In-house kinase assay (32P incorporation). It is filed as biochemical. The conditions noted are these: in-house kinase assays. As to the method: as §1
The mark [10] stands for this setting: rounded IC50 value used for ease of calculation in PBMC assays, read-out: IC50 Used.

Chain of CDK1B (P06493 whole entry): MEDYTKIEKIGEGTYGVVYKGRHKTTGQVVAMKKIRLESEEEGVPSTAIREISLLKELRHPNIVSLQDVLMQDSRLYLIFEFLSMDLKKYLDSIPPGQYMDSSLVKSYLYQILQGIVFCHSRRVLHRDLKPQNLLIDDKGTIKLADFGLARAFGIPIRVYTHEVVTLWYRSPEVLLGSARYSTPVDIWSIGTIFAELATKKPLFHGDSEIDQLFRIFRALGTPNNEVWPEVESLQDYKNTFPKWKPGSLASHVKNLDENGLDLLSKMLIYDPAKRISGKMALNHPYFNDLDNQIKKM
Chain of CDK1B (P14635 whole entry partner): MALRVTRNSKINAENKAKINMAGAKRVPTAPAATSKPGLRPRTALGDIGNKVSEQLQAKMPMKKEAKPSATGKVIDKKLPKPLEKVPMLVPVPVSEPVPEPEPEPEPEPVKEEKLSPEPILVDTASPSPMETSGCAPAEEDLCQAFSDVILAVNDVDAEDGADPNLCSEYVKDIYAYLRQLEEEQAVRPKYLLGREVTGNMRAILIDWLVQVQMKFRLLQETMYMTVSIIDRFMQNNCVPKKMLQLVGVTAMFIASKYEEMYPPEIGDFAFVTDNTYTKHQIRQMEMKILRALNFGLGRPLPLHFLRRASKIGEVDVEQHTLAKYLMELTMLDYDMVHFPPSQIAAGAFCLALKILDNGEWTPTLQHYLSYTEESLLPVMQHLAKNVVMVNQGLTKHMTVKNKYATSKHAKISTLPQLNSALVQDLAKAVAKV
Chain of CDK6D3 (Q00534 whole entry): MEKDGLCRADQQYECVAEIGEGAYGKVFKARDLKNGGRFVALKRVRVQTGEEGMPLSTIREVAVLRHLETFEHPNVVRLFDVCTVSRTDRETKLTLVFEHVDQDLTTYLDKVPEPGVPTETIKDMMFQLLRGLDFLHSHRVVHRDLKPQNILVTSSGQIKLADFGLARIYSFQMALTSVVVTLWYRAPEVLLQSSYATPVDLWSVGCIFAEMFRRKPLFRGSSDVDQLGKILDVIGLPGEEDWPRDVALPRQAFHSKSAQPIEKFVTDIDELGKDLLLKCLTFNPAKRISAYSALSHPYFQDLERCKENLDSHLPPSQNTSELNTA
Chain of CDK6D3 (P30281 whole entry partner): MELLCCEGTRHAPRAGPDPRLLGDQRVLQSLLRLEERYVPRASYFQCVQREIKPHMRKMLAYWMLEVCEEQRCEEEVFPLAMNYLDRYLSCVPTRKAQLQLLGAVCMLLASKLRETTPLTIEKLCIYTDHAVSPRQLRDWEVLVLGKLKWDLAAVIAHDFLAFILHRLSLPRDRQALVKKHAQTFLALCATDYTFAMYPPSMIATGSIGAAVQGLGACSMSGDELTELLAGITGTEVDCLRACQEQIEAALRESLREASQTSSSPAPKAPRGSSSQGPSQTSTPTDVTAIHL
Chain of AurB (Q96GD4 whole entry): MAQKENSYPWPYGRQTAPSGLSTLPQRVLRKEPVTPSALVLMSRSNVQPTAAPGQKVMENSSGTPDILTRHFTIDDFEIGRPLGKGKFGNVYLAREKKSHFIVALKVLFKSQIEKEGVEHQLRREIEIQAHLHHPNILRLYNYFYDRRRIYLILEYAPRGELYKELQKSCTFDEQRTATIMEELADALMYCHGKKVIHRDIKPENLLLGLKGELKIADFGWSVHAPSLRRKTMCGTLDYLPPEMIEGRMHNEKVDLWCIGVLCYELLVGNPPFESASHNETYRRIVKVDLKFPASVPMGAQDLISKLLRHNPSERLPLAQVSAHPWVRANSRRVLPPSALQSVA
Chain of CDK7/cyclin H (P50613 whole entry): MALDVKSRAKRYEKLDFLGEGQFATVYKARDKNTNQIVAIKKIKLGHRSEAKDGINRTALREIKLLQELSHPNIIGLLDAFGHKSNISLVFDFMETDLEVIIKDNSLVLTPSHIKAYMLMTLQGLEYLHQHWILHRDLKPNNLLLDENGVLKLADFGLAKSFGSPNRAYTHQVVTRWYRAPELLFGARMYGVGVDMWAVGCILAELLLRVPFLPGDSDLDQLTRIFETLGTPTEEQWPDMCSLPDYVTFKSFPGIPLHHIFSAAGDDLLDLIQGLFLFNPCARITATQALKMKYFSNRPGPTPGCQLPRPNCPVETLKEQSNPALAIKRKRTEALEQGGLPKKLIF
Chain of CDK7/cyclin H (P51946 whole entry partner): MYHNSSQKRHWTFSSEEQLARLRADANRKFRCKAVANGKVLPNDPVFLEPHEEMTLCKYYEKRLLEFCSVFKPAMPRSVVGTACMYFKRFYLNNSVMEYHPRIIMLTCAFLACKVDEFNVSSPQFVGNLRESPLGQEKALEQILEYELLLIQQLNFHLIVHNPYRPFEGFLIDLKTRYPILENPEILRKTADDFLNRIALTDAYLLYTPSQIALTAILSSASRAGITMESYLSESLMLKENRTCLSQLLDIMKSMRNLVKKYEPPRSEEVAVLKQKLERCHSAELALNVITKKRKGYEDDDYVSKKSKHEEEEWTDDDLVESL
Chain of CDK9/cyclin T1 (P50750 whole entry): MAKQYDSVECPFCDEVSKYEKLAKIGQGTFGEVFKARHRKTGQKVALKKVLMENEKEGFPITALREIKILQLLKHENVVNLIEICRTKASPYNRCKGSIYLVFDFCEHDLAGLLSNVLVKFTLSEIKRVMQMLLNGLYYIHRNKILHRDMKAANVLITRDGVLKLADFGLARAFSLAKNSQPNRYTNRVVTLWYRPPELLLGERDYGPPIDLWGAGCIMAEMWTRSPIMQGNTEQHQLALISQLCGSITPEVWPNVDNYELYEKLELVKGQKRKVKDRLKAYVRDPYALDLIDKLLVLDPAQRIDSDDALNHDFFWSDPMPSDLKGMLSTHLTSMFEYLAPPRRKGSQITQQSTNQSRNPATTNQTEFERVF
Chain of CDK9/cyclin T1 (O60563 whole entry partner): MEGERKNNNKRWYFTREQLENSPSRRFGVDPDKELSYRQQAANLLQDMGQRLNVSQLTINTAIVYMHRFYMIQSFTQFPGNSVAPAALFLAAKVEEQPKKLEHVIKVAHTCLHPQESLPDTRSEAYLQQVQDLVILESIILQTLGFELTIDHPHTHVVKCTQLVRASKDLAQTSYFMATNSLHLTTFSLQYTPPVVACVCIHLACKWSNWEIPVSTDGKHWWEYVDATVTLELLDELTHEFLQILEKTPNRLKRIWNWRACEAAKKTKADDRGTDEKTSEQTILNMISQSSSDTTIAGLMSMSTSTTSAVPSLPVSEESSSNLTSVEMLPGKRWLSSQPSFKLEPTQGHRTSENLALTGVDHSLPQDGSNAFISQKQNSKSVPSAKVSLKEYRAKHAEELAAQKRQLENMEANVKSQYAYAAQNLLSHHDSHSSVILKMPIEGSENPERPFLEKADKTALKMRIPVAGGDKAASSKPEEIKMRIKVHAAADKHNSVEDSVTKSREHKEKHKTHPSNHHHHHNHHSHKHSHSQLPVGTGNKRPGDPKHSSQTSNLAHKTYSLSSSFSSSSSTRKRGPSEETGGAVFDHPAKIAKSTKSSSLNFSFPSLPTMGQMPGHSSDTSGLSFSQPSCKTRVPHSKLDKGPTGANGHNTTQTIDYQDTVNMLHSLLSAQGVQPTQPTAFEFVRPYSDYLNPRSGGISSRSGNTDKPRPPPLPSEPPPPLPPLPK
Chain of CDK4D1 (P11802 whole entry): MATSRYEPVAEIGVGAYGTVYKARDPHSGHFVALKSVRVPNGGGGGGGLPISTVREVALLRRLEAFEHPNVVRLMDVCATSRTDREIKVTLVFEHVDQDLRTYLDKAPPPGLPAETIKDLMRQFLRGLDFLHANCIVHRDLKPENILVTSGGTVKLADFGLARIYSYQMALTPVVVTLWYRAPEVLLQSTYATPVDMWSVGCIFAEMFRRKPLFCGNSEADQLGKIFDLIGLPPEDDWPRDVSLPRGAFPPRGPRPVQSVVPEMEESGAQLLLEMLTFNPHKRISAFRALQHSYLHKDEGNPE
Chain of CDK4D1 (P24385 whole entry partner): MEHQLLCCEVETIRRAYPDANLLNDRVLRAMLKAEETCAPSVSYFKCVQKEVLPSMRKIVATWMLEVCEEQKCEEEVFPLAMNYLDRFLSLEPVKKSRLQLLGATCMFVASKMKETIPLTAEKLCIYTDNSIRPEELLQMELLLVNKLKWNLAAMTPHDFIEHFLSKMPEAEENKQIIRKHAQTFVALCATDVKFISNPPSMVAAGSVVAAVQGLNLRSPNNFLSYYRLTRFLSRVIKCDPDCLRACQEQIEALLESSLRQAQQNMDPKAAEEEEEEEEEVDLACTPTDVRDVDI

Consider `Cc1nc(C)c(-c2ccnc(Nc3ccc(N(C)C)cc3)n2)s1` [Compound 4], for which the IC50 amounted to 1.88 µM in test [1]; 8.57 µM in test [2]; 7.46 µM in [3]; 0.03 µM in test [4]; 1.04 µM in test [5]; 0.038 µM in [6]. Moreover, the IC50 in test [8] (PBMC, read-out: IC50 Used) was found to be 1 µM. The BrdU incorporation result in [7] (Example 3, PMA/I stimulated PBMCs, all concentrations) is “higher than in PHA stimulated cells”; in test [7] (Example 4, PHA or ConA stimulated PBMCs, 0.25×IC50 to 4×IC50, 48 and 72 hours), “BrdU signals do not reduce to background levels; also recorded: fails to achieve complete inhibition of proliferation activity”.
As to `CC[C@H](Nc1nc(NCc2cccnc2)c2ncn(C(C)C)c2n1)[C@@H](C)O` [Compound 8], the IC50 in test [3] was 1.99 µM; in [4] it was 0.399 µM; in test [5] it was 0.168 µM; in [6], 0.652 µM; in test [8] (72 h, read-out: IC50 Average), 0.876 µM; in test [8] (setting [10]), 1 µM.
On to `Cc1nc(N)sc1-c1ccnc(Nc2ccc(N3CCOCC3)cc2)n1` [Compound 11], for which the IC50 in test [2] was 0.266 µM; in test [8] (72 h, read-out: IC50 Average) it was 0.291 µM; in [8] (setting [10]) it was 0.5 µM.
In the case of `CNc1nc(C)c(-c2ccnc(Nc3ccc(N4CCNCC4)cc3)n2)s1` [Compound 12], the concentration for half-maximal inhibition (IC50) in test [3] is 1.03 µM; in test [9] it was 1.02 µM; in [8] (72 h, read-out: IC50 Average) it was 0.353 µM; in [8] (setting [10]), 0.5 µM.
